Columns and labels:
Assay in all cases: relative viability (nuclei count vs DMSO), 5 days (fraction); higher = more cells survive
LU99A = system: LU99A
Procedure, shortened: (§1)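 Five library-drug doses in √10 steps were combined with a fixed anchor-drug dose, or a single drug was given alone, by pin tool to lung cancer cell lines in 1536-well plates the day after seeding. Nuclei were stained and counted after 5 days. Relative viability is the nuclei count in treated wells over that in vehicle wells, taken as the median of duplicate plates.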

NCI-H1355 = system: NCI-H1355
Procedure, shortened: as §1

UMC-11 = system: UMC-11
Procedure, shortened: as §1

LC-2-ad = system: LC-2-ad
Procedure, shortened: as §1

EPLC-272H = system: EPLC-272H
Procedure, shortened: as §1

NCI-H1651 = system: NCI-H1651
Procedure, shortened: as §1

COR-L23 = system: COR-L23
Procedure, shortened: as §1

NCI-H2347 = system: NCI-H2347
Procedure, shortened: as §1

NCI-H2126 = system: NCI-H2126
Procedure, shortened: as §1

NCI-H838 = system: NCI-H838
Procedure, shortened: as §1

NCI-H2085 = system: NCI-H2085
Procedure, shortened: as §1

NCI-H650 = system: NCI-H650
Procedure, shortened: as §1

HARA = system: HARA
Procedure, shortened: as §1

HCC-78 = system: HCC-78
Procedure, shortened: as §1

NCI-H2023 = system: NCI-H2023
Procedure, shortened: as §1

PC-14 = system: PC-14
Procedure, shortened: as §1

HCC-15 = system: HCC-15
Procedure, shortened: as §1

SW 1573 = system: SW 1573
Procedure, shortened: as §1

NCI-H358 = system: NCI-H358
Procedure, shortened: as §1

ABC-1 = system: ABC-1
Procedure, shortened: as §1

NCI-H1915 = system: NCI-H1915
Procedure, shortened: as §1

NCI-H1993 = system: NCI-H1993
Procedure, shortened: as §1

Compound: CC1(C)CCC(c2ccc(Cl)cc2)=C(CN2CCN(c3ccc(C(=O)NS(=O)(=O)c4ccc(N[C@H](CCN5CCOCC5)CSc5ccccc5)c(S(=O)(=O)C(F)(F)F)c4)cc3)CC2)C1 [Navitoclax] + C[C@]1(O)C[C@@H](c2nc(-c3ccc4ccc(-c5ccccc5)nc4c3)c3c(N)nccn32)C1 [Linsitinib] (partner 1 µM)
- relative viability (LU99A; first compound 0.005 µM): 0.622
- relative viability (LU99A; first compound 0.01581 µM): 0.67
- relative viability (LU99A; first compound 0.05 µM): 0.444
- relative viability (LU99A; first compound 0.1581 µM): 0.543
- relative viability (LU99A; first compound 0.5 µM): 0.522
- relative viability (NCI-H1355; first compound 0.005 µM): 0.831
- relative viability (NCI-H1355; first compound 0.01581 µM): 0.892
- relative viability (NCI-H1355; first compound 0.05 µM): 0.817
- relative viability (NCI-H1355; first compound 0.1581 µM): 0.775
- relative viability (NCI-H1355; first compound 0.5 µM): 0.834
- relative viability (UMC-11; first compound 0.005 µM): 0.97
- relative viability (UMC-11; first compound 0.01581 µM): 1.03
- relative viability (UMC-11; first compound 0.1581 µM): 1.01
- relative viability (UMC-11; first compound 0.5 µM): 0.893
- relative viability (LC-2-ad; first compound 0.005 µM): 0.853
- relative viability (LC-2-ad; first compound 0.01581 µM): 0.904
- relative viability (LC-2-ad; first compound 0.05 µM): 0.787
- relative viability (LC-2-ad; first compound 0.1581 µM): 0.789
- relative viability (LC-2-ad; first compound 0.5 µM): 0.796
- relative viability (EPLC-272H; first compound 0.005 µM): 1.29
- relative viability (EPLC-272H; first compound 0.1581 µM): 1.26
- relative viability (EPLC-272H; first compound 0.5 µM): 0.997
- relative viability (NCI-H1651; first compound 0.005 µM): 0.945
- relative viability (NCI-H1651; first compound 0.01581 µM): 1.25
- relative viability (NCI-H1651; first compound 0.1581 µM): 0.966
- relative viability (NCI-H1651; first compound 0.5 µM): 0.937
- relative viability (COR-L23; first compound 0.005 µM): 0.874
- relative viability (COR-L23; first compound 0.01581 µM): 0.991
- relative viability (COR-L23; first compound 0.05 µM): 0.97
- relative viability (COR-L23; first compound 0.1581 µM): 0.853
- relative viability (COR-L23; first compound 0.5 µM): 0.88
- relative viability (NCI-H2347; first compound 0.005 µM): 0.94
- relative viability (NCI-H2347; first compound 0.01581 µM): 1.03
- relative viability (NCI-H2347; first compound 0.05 µM): 0.876
- relative viability (NCI-H2347; first compound 0.1581 µM): 0.954
- relative viability (NCI-H2347; first compound 0.5 µM): 0.973
- relative viability (NCI-H2126; first compound 0.005 µM): 0.708
- relative viability (NCI-H2126; first compound 0.01581 µM): 0.748
- relative viability (NCI-H2126; first compound 0.05 µM): 0.786
- relative viability (NCI-H2126; first compound 0.1581 µM): 0.661
- relative viability (NCI-H2126; first compound 0.5 µM): 0.725
- relative viability (NCI-H838; first compound 0.005 µM): 0.89
- relative viability (NCI-H838; first compound 0.01581 µM): 1.11
- relative viability (NCI-H838; first compound 0.05 µM): 1.12
- relative viability (NCI-H838; first compound 0.1581 µM): 1.03
- relative viability (NCI-H838; first compound 0.5 µM): 1.03
- relative viability (NCI-H2085; first compound 0.005 µM): 0.828
- relative viability (NCI-H2085; first compound 0.01581 µM): 0.96
- relative viability (NCI-H2085; first compound 0.05 µM): 0.831
- relative viability (NCI-H2085; first compound 0.1581 µM): 1
- relative viability (NCI-H2085; first compound 0.5 µM): 0.947
- relative viability (NCI-H650; first compound 0.005 µM): 0.703
- relative viability (NCI-H650; first compound 0.01581 µM): 0.817
- relative viability (NCI-H650; first compound 0.05 µM): 0.97
- relative viability (NCI-H650; first compound 0.1581 µM): 0.767
- relative viability (NCI-H650; first compound 0.5 µM): 0.846
- relative viability (HARA; first compound 0.005 µM): 0.833
- relative viability (HARA; first compound 0.01581 µM): 1.16
- relative viability (HARA; first compound 0.05 µM): 0.749
- relative viability (HARA; first compound 0.1581 µM): 0.918
- relative viability (HARA; first compound 0.5 µM): 0.861
- relative viability (HCC-78; first compound 0.005 µM): 0.468
- relative viability (HCC-78; first compound 0.01581 µM): 0.604
- relative viability (HCC-78; first compound 0.1581 µM): 0.523
- relative viability (HCC-78; first compound 0.5 µM): 0.576
- relative viability (NCI-H2023; first compound 0.005 µM): 0.625
- relative viability (NCI-H2023; first compound 0.01581 µM): 0.713
- relative viability (NCI-H2023; first compound 0.05 µM): 0.716
- relative viability (NCI-H2023; first compound 0.1581 µM): 0.766
- relative viability (NCI-H2023; first compound 0.5 µM): 0.647
- relative viability (PC-14; first compound 0.005 µM): 1.03
- relative viability (PC-14; first compound 0.01581 µM): 1.04
- relative viability (PC-14; first compound 0.05 µM): 1.07
- relative viability (PC-14; first compound 0.1581 µM): 0.926
- relative viability (PC-14; first compound 0.5 µM): 0.977
- relative viability (HCC-15; first compound 0.005 µM): 0.819
- relative viability (HCC-15; first compound 0.01581 µM): 0.97
- relative viability (HCC-15; first compound 0.05 µM): 0.783
- relative viability (HCC-15; first compound 0.1581 µM): 0.842
- relative viability (HCC-15; first compound 0.5 µM): 0.843
- relative viability (SW 1573; first compound 0.005 µM): 0.856
- relative viability (SW 1573; first compound 0.01581 µM): 0.841
- relative viability (SW 1573; first compound 0.05 µM): 0.747
- relative viability (SW 1573; first compound 0.1581 µM): 0.798
- relative viability (SW 1573; first compound 0.5 µM): 0.898
- relative viability (NCI-H358; first compound 0.005 µM): 0.763
- relative viability (NCI-H358; first compound 0.01581 µM): 0.956
- relative viability (NCI-H358; first compound 0.05 µM): 0.813
- relative viability (NCI-H358; first compound 0.1581 µM): 0.898
- relative viability (NCI-H358; first compound 0.5 µM): 0.822
- relative viability (ABC-1; first compound 0.005 µM): 0.641
- relative viability (ABC-1; first compound 0.01581 µM): 0.976
- relative viability (ABC-1; first compound 0.05 µM): 0.81
- relative viability (ABC-1; first compound 0.1581 µM): 0.703
- relative viability (ABC-1; first compound 0.5 µM): 0.708
- relative viability (NCI-H1915; first compound 0.005 µM): 1.1
- relative viability (NCI-H1915; first compound 0.01581 µM): 1.12
- relative viability (NCI-H1915; first compound 0.05 µM): 1.07
- relative viability (NCI-H1915; first compound 0.1581 µM): 1.05
- relative viability (NCI-H1915; first compound 0.5 µM): 1.06
- relative viability (NCI-H1993; first compound 0.005 µM): 0.721
- relative viability (NCI-H1993; first compound 0.01581 µM): 0.752
- relative viability (NCI-H1993; first compound 0.05 µM): 0.706
- relative viability (NCI-H1993; first compound 0.1581 µM): 0.672
- relative viability (NCI-H1993; first compound 0.5 µM): 0.675

Source: the supplement of paper PMC10307832
